Assay results: ChEMBL document CHEMBL1909046, “DrugMatrix in vitro pharmacology data”

How the values were obtained:
[1] = target: T1, Alpha-1D adrenergic receptor (Homo sapiens, UniProt P25100); type: cell membranes, HEK293, Membrane; conditions: hek293; also: in other assays of this panel Not Active means under 50% inhibition at 10 µM
T1 sequence (P25100 whole entry): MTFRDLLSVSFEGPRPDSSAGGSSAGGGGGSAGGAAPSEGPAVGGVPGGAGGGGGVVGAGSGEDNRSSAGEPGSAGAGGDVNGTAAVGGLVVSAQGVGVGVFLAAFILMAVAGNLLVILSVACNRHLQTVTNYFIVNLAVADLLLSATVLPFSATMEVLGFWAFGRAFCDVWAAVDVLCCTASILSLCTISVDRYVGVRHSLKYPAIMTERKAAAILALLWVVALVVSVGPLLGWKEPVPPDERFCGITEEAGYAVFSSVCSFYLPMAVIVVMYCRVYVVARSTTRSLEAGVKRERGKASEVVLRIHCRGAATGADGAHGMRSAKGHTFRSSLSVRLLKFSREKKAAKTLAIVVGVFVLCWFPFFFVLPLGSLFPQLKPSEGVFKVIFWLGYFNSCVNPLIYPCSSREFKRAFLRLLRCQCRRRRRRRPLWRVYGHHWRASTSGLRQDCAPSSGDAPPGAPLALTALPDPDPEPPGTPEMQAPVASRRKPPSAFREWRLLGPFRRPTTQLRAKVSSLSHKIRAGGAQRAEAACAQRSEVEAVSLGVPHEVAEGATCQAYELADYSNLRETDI

[2] = target: T2, Alpha-2C adrenergic receptor (Homo sapiens, UniProt P18825); experiment: DRUGMATRIX: Adrenergic Alpha-2C radioligand binding (ligand: [3H] MK-912); type: cell membranes, Sf9, Membrane; conditions: sf9
T2 sequence (P18825 whole entry): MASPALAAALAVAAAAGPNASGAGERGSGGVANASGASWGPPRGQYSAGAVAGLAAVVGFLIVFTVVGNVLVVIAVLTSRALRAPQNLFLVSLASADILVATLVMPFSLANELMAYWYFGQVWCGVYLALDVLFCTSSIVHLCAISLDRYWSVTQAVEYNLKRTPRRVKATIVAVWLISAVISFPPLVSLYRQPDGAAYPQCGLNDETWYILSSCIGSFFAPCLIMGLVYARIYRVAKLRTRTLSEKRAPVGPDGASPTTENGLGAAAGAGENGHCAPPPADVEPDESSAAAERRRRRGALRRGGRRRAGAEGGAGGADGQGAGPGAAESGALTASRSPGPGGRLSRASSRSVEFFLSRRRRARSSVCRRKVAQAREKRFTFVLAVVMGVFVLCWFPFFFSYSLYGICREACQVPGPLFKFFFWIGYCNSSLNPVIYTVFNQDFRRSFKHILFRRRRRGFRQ

Vasopressin V1a receptor = Vasopressin V1a receptor (Homo sapiens, UniProt P37288); type: cell membranes, Membrane; conditions: hek293; also: in other assays of this panel Not Active means under 50% inhibition at 10 µM
Melanocortin receptor 5 = Melanocortin receptor 5 (Homo sapiens, UniProt P33032); type: cell membranes, HEK293, Membrane; conditions: hek293; also: in other assays of this panel Not Active means under 50% inhibition at 10 µM
[3] = target: T3, 5-hydroxytryptamine receptor 2C (Homo sapiens, UniProt P28335); experiment: DRUGMATRIX: Serotonin (5-Hydroxytryptamine) 5-HT2C radioligand binding (ligand: [3H] Mesulergine); type: cell membranes, CHO-K1, Membrane; conditions: cho-k1; Not Active = under 50% inhibition at 10 µM
T3 sequence (P28335 whole entry): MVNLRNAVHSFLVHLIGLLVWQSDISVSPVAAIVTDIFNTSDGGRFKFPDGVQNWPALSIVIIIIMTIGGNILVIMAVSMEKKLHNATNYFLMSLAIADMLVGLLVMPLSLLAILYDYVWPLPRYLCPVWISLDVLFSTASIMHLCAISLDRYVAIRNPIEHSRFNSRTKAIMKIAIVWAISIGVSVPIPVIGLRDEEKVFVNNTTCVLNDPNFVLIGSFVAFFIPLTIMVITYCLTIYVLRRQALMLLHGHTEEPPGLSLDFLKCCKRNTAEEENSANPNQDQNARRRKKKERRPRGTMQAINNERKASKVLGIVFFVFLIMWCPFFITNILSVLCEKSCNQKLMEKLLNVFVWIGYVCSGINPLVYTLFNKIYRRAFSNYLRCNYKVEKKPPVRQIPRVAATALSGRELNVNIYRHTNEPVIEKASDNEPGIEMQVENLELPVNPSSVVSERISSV

[4] = DRUGMATRIX: Sodium/nucleoside co-transporter radioligand binding (ligand: nitrobenzylthioinosine); type: cell membranes, Cavia porcellus, Dunkin-Hartley, Cerebral cortex, Membrane; conditions: Not Active = under 50% inhibition at 10 µM

Melanocortin receptor 5, sequence (P33032 whole entry): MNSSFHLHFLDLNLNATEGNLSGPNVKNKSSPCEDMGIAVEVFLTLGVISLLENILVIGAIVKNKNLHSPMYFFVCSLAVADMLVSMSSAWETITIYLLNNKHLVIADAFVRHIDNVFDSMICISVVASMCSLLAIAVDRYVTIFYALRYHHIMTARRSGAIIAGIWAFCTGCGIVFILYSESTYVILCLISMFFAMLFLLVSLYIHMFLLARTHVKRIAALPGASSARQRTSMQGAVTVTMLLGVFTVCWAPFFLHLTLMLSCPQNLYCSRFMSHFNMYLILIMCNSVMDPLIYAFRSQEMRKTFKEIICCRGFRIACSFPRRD
Vasopressin V1a receptor, sequence (P37288 whole entry): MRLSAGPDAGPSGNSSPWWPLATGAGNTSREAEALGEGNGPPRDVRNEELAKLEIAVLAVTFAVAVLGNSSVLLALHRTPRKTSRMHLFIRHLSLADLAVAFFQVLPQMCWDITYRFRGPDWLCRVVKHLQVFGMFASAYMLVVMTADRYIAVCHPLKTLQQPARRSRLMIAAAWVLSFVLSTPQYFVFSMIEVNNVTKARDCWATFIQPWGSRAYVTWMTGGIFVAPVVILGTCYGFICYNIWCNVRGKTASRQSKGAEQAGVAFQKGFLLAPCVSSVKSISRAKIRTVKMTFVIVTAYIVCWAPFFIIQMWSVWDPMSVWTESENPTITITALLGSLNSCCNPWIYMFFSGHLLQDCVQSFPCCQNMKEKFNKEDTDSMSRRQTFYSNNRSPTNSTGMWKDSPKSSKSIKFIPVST

NC(=O)N1c2ccccc2CC(=O)c2ccccc21 [OXCARBAZEPINE]
Not Active: IC50 [1] | IC50 [2] | IC50 (Vasopressin V1a receptor) | IC50 (Melanocortin receptor 5) | IC50 [3] | IC50 [4] | Ki [4]
